We go through 56 compounds from the Kinase Knowledgebase extract (Sharma et al. 2016).

The assay concerns the target PIK3CA (human) (UniProt P42336). Briefly: Inhibition of PIK3CA Kinase Activity.

Sequence of PIK3CA (human) (P42336 whole entry, looked up): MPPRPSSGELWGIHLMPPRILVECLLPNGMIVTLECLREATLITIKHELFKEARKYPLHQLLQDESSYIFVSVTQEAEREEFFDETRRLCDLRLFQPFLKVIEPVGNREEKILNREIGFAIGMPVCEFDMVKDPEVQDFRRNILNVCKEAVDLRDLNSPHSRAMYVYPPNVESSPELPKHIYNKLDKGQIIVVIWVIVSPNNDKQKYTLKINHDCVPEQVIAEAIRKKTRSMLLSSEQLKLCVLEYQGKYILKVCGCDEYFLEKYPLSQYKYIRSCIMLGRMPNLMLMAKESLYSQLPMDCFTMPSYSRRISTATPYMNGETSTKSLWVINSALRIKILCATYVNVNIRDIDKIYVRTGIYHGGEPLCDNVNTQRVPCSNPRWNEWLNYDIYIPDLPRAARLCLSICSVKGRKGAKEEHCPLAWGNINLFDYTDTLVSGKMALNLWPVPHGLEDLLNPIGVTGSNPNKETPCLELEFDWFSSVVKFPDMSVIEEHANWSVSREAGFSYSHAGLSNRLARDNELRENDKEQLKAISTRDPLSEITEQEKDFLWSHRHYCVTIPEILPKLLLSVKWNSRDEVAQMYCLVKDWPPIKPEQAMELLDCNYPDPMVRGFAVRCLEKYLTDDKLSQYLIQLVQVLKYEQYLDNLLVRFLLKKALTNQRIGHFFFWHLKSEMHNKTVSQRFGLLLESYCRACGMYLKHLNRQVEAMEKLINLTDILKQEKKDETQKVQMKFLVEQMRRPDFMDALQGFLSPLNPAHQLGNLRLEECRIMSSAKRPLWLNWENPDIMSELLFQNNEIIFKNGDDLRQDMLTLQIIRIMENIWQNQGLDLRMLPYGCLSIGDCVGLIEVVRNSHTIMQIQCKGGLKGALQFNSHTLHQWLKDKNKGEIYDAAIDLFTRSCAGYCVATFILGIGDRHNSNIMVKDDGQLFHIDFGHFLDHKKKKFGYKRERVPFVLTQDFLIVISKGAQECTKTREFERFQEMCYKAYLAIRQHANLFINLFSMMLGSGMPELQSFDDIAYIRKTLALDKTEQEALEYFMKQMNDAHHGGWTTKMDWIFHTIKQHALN

The compound `CC1(C)CCc2ncnc(N3CCOc4ccc(-c5cnc(N)c(S(=O)(=O)NC[C@H]6CCNC6)c5)cc4C3)c2C1` came in with an IC50 of 10 to 50 nM.
`Cc1nc2ccc(-c3ccc4c(c3)CN(c3ccnc(C)c3Cc3ccc(F)cc3)CCO4)cc2[nH]1` gave an IC50 of 10 to 50 nM.
Then `CCc1c(C)nc(CN(C)C)nc1N1CCOc2ccc(-c3cnc4sc(N)nc4c3)cc2C1`, with ≤ 10 nM.
Then `CC1(C)CCc2ncnc(N3CCOc4ccc(-c5cnc(N6CC[C@H](N)C6)c(S(=O)(=O)N6CC[C@H](N)C6)c5)cc4C3)c2C1`, with 250 to 1000 nM.
Then `Cc1nc2ccc(-c3ccc4c(c3)CN(c3ncnc(C)c3Cc3cc(F)cc(Cl)c3)CCO4)cc2[nH]1`, with 10 to 50 nM.
For `CC1(C)CCc2ncnc(N3CCOc4ccc(-c5cnc6[nH]c(C(F)F)nc6c5)cc4C3)c2C1`, the IC50 fell in the range of 50 to 250 nM.
Then `CC1(C)CCc2ncnc(N3CCOc4ccc(-c5cnc(N)c(S(=O)(=O)NCCN)c5)cc4C3)c2C1`, with 10 to 50 nM; and `Cc1nc2ccc(-c3ccc4c(c3)CN(c3ncnc5c3CCCC5)CCO4)cc2[nH]1`, with 50 to 250 nM; and `COc1c(OCc2ccccc2)ccc2c(N3CCOc4ccc(-c5ccc6nc(C)[nH]c6c5)cc4C3)ncnc12`, with 10 to 50 nM.
For the compound `CCNc1nc2ncc(-c3ccc4c(c3)CN(c3nc(C)nc5cc(OC)ccc35)CCO4)cc2[nH]1`, the IC50 is ≤ 10 nM.
`CC1(C)CCc2ncnc(N3CCOc4ccc(-c5cnc(N)c(S(=O)(=O)N6CC7CNCC7C6)c5)cc4C3)c2C1` (stereo unspecified) showed an IC50 of 50 to 250 nM.
Regarding `Cc1nc2cc(-c3ccc4c(c3)CN(c3nc(CN(C)C)nc(C)c3C(C)C)CCO4)cnc2[nH]1`, the IC50 was ≤ 10 nM.
Then `CC1(C)CCc2ncnc(N3CCOc4ccc(-c5cnc(N)c(S(N)(=O)=O)c5)cc4C3)c2C1`, with ≤ 10 nM.
Then `Cc1nc2c(c(N3CCOc4ccc(-c5cnc(N)c(S(=O)(=O)N[C@@H]6CCN(C)C6)c5)cc4C3)n1)CC(C)(C)CC2`, with 50 to 250 nM; and `CC1(C)CCc2ncnc(N3CCOc4ccc(-c5cnc(N)c(S(=O)(=O)N6CC7(CNC7)C6)c5)cc4C3)c2C1`, with 10 to 50 nM; and `Cc1nc2ncc(-c3ccc4c(c3)CN(c3ncnc5c3CC[C@@H](C)C5)CCO4)cc2[nH]1`, with 50 to 250 nM.
Take `COc1ccc2c(N3CCOc4ccc(-c5ccc6nc(C)[nH]c6c5)cc4C3)ncnc2c1`: the IC50 is ≤ 10 nM.
For `Cc1nc(Nc2ccccc2)c(C)c(N2CCOc3ccc(-c4cnc5nc[nH]c5c4)cc3C2)n1` the value was 10 to 50 nM.
On to `Cn1ccc2cc(-c3ccc4c(c3)CN(c3ccnc5ccccc35)CCO4)cnc21`, for which the concentration for half-maximal inhibition (IC50) was in the range of 250 to 1000 nM.
Then `CNC1CN(S(=O)(=O)c2cc(-c3ccc4c(c3)CN(c3ncnc5c3CC(C)(C)CC5)CCO4)cnc2N)C1`, with 10 to 50 nM; and `COc1ccc2c(N3CCOc4ccc(-c5ccc6[nH]c(C)nc6c5)cc4C3)nc(CN(C)C)nc2c1`, with ≤ 10 nM; and `COc1ccc2c(N3CCOc4ccc(-c5ccc6nc(C)[nH]c6c5)cc4C3)nc(C)nc2c1`, with 10 to 50 nM.
For `CN(C)Cc1nc2c(c(N3CCOc4ccc(-c5ccc6[nH]c(C(F)F)nc6c5)cc4C3)n1)CC(C)(C)CC2` the value was 10 to 50 nM.
Then `Cc1nc2c(C)cc(-c3ccc4c(c3)CN(c3ncnc5cccnc35)CCO4)cc2[nH]1`, with 50 to 250 nM.
`C=C[C@H]1CCCc2c(ncnc2N2CCOc3ccc(-c4cnc5nc(C)[nH]c5c4)cc3C2)C1` yielded an IC50 of 10 to 50 nM.
Then `CC1(C)CCc2ncnc(N3CCOc4ccc(-c5ccc6nc[nH]c6c5)cc4C3)c2C1`, with 50 to 250 nM; and `Cc1nc2c(c(N3CCOc4ccc(-c5cnc6nc(C7CC7)[nH]c6c5)cc4C3)n1)CC(C)(C)CC2`, with 50 to 250 nM.
As to `CN1CCC(CNS(=O)(=O)c2cc(-c3ccc4c(c3)CN(c3ncnc5c3CC(C)(C)CC5)CCO4)cnc2N)CC1`, the IC50 was in the range of 10 to 50 nM.
In turn, `c1ccc2c(N3CCOc4ccc(-c5cn[nH]c5)cc4C3)ccnc2c1` gave an IC50 of 250 to 1000 nM.
In the case of `CCc1c(C(C)C)ncnc1N1CCOc2ccc(-c3ccc4nc(C)[nH]c4c3)cc2C1`, the IC50 was 250 to 1000 nM.
With `CC1(C)CCc2ncnc(N3CCOc4ccc(-c5cnc(N)c(S(=O)(=O)NCC(O)CN)c5)cc4C3)c2C1` (stereo unspecified), the IC50 is ≤ 10 nM.
For `Cc1ccc2ncnc(N3CCOc4ccc(-c5ccc6nc(C)[nH]c6c5)cc4C3)c2c1` the value was 10 to 50 nM.
The compound `Cc1nc2ncc(-c3ccc4c(c3)CN(c3nc(CN(C)C5CC5)nc5c3CC(C)(C)CC5)CCO4)cc2[nH]1` showed an IC50 of 50 to 250 nM.
For the compound `COc1ccc2c(N3CCOc4ccc(-c5cnc(N)c(S(=O)(=O)C[C@@H](C)CO)c5)cc4C3)ncnc2c1`, the IC50 was ≤ 10 nM.
For `Cc1nc2ncc(-c3ccc4c(c3)CN(c3ncnc5c3CCC(C)(c3ccccc3)C5)CCO4)cc2[nH]1` (stereo unspecified) the value was 10 to 50 nM; for `c1cc(N2CCOc3ccc(-c4ccc5nc[nH]c5c4)cc3C2)ncn1`, 250 to 1000 nM.
Then `Cc1nc2ncc(-c3ccc4c(c3)CN(c3nc(CO)nc5c3CC(C)(C)CC5)CCO4)cc2[nH]1`, with 10 to 50 nM.
On to `COc1ccc2c(N3CCOc4ccc(-c5ccc6nc[nH]c6c5)cc4C3)nc(C)nc2c1`, for which the IC50 was ≤ 10 nM.
Then `CC1(C)CCc2ncnc(N3CCOc4ccc(-c5cnc(Cl)c(S(=O)(=O)N6CC[C@H](N)C6)c5)cc4C3)c2C1`, with 250 to 1000 nM; and `Cc1nc2c(F)c(-c3ccc4c(c3)CN(c3nc(CN(C)C)nc5c3CC(C)(C)CC5)CCO4)ccc2[nH]1`, with 10 to 50 nM; and `Cc1nc2cc(-c3ccc4c(c3)CN(c3nc(CN(C)C)nc(C)c3C)CCO4)cnc2[nH]1`, with 10 to 50 nM.
Then `CCOc1ccc2ncnc(N3CCOc4ccc(-c5ccc6nc(C)[nH]c6c5)cc4C3)c2c1`, with 50 to 250 nM; and `CC(C)(CN)CNS(=O)(=O)c1cc(-c2ccc3c(c2)CN(c2ncnc4c2CC(C)(C)CC4)CCO3)cnc1N`, with 50 to 250 nM; and `CCNc1nc2ncc(-c3ccc4c(c3)CN(c3ncnc(C)c3Cc3ccc(F)cc3)CCO4)cc2[nH]1`, with ≤ 10 nM.
The compound `Cc1nc2ncc(-c3ccc4c(c3)CN(c3ncnc(C)c3Br)CCO4)cc2[nH]1` gave an IC50 of 50 to 250 nM.
For `COc1ccc(-c2ccc3c(c2)CN(c2nc(CN(C)C)nc4c2CC(C)(C)CC4)CCO3)cc1Cl` the value was 250 to 1000 nM.
For `CCc1c(C)nc(C)nc1N1CCOc2ccc(-c3cnc4nc(C)[nH]c4c3)cc2C1` the value was 50 to 250 nM.
The compound `C[C@H](CO)CS(=O)(=O)c1cc(-c2ccc3c(c2)CN(c2ncnc4c2CC(C)(C)CC4)CCO3)cnc1N` gave an IC50 of 10 to 50 nM.
For `CC1(C)CCc2ncnc(N3CCOc4ccc(-c5cnc(N)c(S(=O)(=O)N6CCC(N)CC6)c5)cc4C3)c2C1` the value was 10 to 50 nM; for `CC1(C)CCc2ncnc(N3CCOc4ccc(-c5cnc(N)c(S(=O)(=O)N[C@@H]6CCNC6)c5)cc4C3)c2C1`, 10 to 50 nM.
For `Cc1nc(CN(C)C)nc(N2CCOc3ccc(-c4ccc5scnc5c4)cc3C2)c1Cc1ccc(F)cc1` the value was 250 to 1000 nM; for `CC1(C)CCc2ncnc(N3CCOc4ccc(-c5cncc(NS(C)(=O)=O)c5)cc4C3)c2C1`, 50 to 250 nM.
For `CCc1nc2ncc(-c3ccc4c(c3)CN(c3nc(C)nc5c3CC(C)(C)CC5)CCO4)cc2[nH]1` the value was 10 to 50 nM; for `Cc1nc(CN(C)C)nc(N2CCOc3ccc(-c4ccc5[nH]c(CF)nc5c4)cc3C2)c1C(C)C`, ≤ 10 nM.
Consider `Cc1nc2ccc(-c3ccc4c(c3)CN(c3ncnc5sccc35)CCO4)cc2[nH]1`, for which the IC50 lay in the range of 250 to 1000 nM.
Then `CC1(C)CCc2nc(CC#N)nc(N3CCOc4ccc(-c5cnc6sc(N)nc6c5)cc4C3)c2C1`, with 10 to 50 nM.
